The results in this text go back to patent US6706509B2, “Oncoprotein protein kinase” (The Regents of the University of California, priority 1993, dated 2004).

This assay has as its system JNK1. Description: Epitope-tagged JNK1 protein kinase activity in transfected COS cells. The class given is cell-based. The settings on record: 10 nM EGF or 100 nM TPA. As for the experimental part: JNK1 protein kinase activity was detected in the immune-complex. Immunecomplex kinase assays using either M2 immunoprecipitates or purified JNK1, JNK-46, and ERK1 or ERK2 were performed at 30° C. for 20 mins using 3 μg of substrate, 20 μM ATP and 5 μCi of [γ-^32P]ATP in 30 μl of kinase buffer (25 mM Hepes (pH 7.6), 20 mM MgCl2, 20 mM β-glycerophosphate, 20 mM p-nitrophenyl phosphate, 0.1 mM Na orthovanadate, 2 mM DTT). The reactions were terminated with Laemmli sample buffer and the products were resolved by SDS-PAGE (12% gel). JNK1 protein activity was also measured after SDS-PAGE by the in-gel kinase assay with the substrate GST-cJun(1-79) as described by Hibi, et al., supra, (1993). Solid-phase protein kinase assays were performed as described by Hibi, et al., supra, (1993). Clarified cell extracts were incubated with GST fusion proteins immobilized on GSH-agarose beads. After 3 hours at 4° C., the beads were washed extensively and bound JNK1 was detected by the addition of [γ-^32P]ATP. The reaction was terminated after 10 mins at 30° C. and the products were resolved by SDS-PAGE. The incorporation of [^32P]phosphate was visualized by autoradiography and quantitated with a phosphorimager and ImageQuant software (Molecular Dynamics Inc., Sunnyvale, Calif.). The methods used for phosphopeptide mapping (Boyle, et al., Cell 64:573-584, 1991) and phosphoamino acid analysis (Alvarez, et al., J. Biol. Chem 266:15227-15285, 1991) were described previously.
Epitope-tagged JNK1 was expressed in COS cells. Control experiments were performed using mock-transfected cells. After 48 hours, the cells were treated either without or with 100 nM TPA, 10 nM EGF, or 80 J/m^2 UV-C and incubated for 1 hr. The cells were lysed in RIPA buffer and the JNK1 proteins were isolated by immunoprecipitation with the M2 monoclonal antibody. JNK1 protein kinase activity was measured after SDS-PAGE using an in-gel kinase assay with the substrate GST-cJun(1-79) polymerized into the gel.
COS-1 cells were maintained in. Dulbecco's modified Eagle's medium supplemented with 5% […] (Gibco-BRL). Metabolic labeling with [^32P]phosphate was performed by incubation of cells in phosphate-free modified Eagle's medium (Flow Laboratories Inc.) supplemented with 0.1% fetal bovine serum and 1 mCi/ml [^32P]orthophosphate (Dupont-NEN). COS cells were treated with 10 nM EGF or 100 nM thorbol myristate acetate. The cells were then incubated for defined times at 37° C. prior to harvesting and measurement of JNK1 protein kinase activity. The data are presented as arbitrary units. […] In contrast, exposure to UV radiation caused a marked increase in JNK1 activity.

Take “EGF: EGF, used at 10 nM to treat COS cells (NSDSECPLSHDGYCLHDGVCMYIEALDKYACNCVVGYIGERCQYRDLKWWELR; UniProt P01133 971-1023, looked up)”: the JNK1 activation result is reported as “low level of JNK1 activation” and the “duration of JNK1 activation” value is on record as “approximately 2 hours”.
